Experimental data: article PMC6916019, “In vitro anti-malarial efficacy of chalcones: cytotoxicity profile, mechanism of action and their effect on erythrocytes” (Malaria Journal, 2019)
Converted amounts (≈) assume the structure as drawn.

Legend:
[1] = MTT cytotoxicity / cell viability assay; conditions: human
Method: Cytotoxicity of the compounds on mammalian cells were accomplished employing HeLa cell line (NCCS, Pune) cultured in DMEM supplemented with 10% FBS by the MTT (3-(4,5-dimethylthiazol-2-yl)-2,5-diphenyltetrazolium bromide) microenzymatic method with certain modifications [32]. Briefly, cells (10^4 cells/200 μL/well) were seeded into 96-well flat-bottom sterile tissue culture plates in complete medium. After 24 h of seeding, the test compounds at different dilutions were added and kept for another 24 h in a humidified chamber with 5% CO2 at 37 °C. Twenty microlitres of MTT (5.00 mg/mL in 1XPBS) stock solution were pipetted into each well, mixed and incubated for at least 3–4 h. After incubation, the plates were centrifuged at 1500 rpm for 5 min. The supernatant was disposed cautiously and 100 μL of DMSO were added to each well to lyse the cell and dissolve the insoluble purple formazan product into a coloured solution. Absorbance was taken at 570 nm to determine formazan formation as a measurement of cell viability. Experiments were performed in triplicate.

[2] = test system: P. falciparum chloroquine sensitive strain (MRC-2); experiment: microbe, parasite or virus in culture; conditions: Plasmodium falciparum, 24 h
Method: These strains were perpetuated in vitro in continuous culture according to the method of Trager and Jensen with slight modifications. Briefly, both sensitive and resistant strains of P. falciparum were maintained in A+ erythrocytes in RPMI-1640 medium (having glutamine, but without any sodium bicarbonate) comprising 1.00 g of dextrose, 5.94 g of HEPES buffer, 40.00 mg of gentamycin. Additionally supplemented with 5% sodium bicarbonate and 10% (v/v) inactivated human AB+ serum then incubated in gas mixture of 5% CO2, 5% O2 and 90% N2 at 37 °C. Parasitized erythrocytes at initial 5% haematocrit were suspended in above mentioned culture medium and parasitaemia was regularly checked to maintain level between 2 and 4% with further sub-culturing for parasitaemia beyond 5%. Growth and multiplication of parasite was monitored by microscopy using Giemsa-stained slides.
To obtain ring stages of the parasite, the cultures were synchronized using D-sorbitol. The cultures, with majority of ring stages, were treated with equal volume of aqueous 5% D-sorbitol for 5 min and then after centrifugation pellet were suspended in complete medium and fresh erythrocytes synchronized culture with 1% parasitaemia and 5% haematocrit were used for compound concentration response assay.
The concentration of each test compound needed to hinder multiplication of parasites by 50% (IC50) against P. falciparum strains were obtained through concentration response assay performed in 96-well sterile tissue culture plates. Synchronized parasite cultures were applied to different doses of each compound. Dilutions were performed in gentamycin-free culture medium, and incubated at 37 °C having gaseous mixture (5% CO2, 5% O2 and 90% N2) supply for 24 h. The results were expressed as IC50 values computed from HN-NonLin Regression analysis, as well as mean percentage inhibition ± standard error examined by thick smear Giemsa stained slides. %ParasiteInhibition29,30=100-TotalnumberofSchizontsintestwells/TotalnumberofSchizontsincontrolwell∗100
Parasite at ring stage was used for compound concentration response assay with parasitaemia of 1% at 5% haematocrit. […] The IC50 and IC90 values of all compounds were determined and the resistance index between the two sensitive and resistant strains was calculated (Table 2). […] The percentage inhibition in schizont maturation was also calculated after incubation of ring stage P. falciparum till 24 h at the same range of drug concentrations (Table 3).

[3] = test system: haemozoin (β-haematin) production in P. falciparum cultures; experiment: Haemozoin inhibition assay in P. falciparum cultures; type: cell-based, Plasmodium falciparum; conditions: drug near IC50 concentration, 48 h, untreated control 547.61 ± 9.52
Method: Briefly, the test cultures were centrifuged for 5–10 min at 1300 rpm to dispose of the culture medium. Infected erythrocyte pellet (mingled of β-haematin and erythrocyte membrane) were exposed to 0.01% saponin lysis for 10 min at 25 °C to lyse erythrocyte to release parasites. […] The haemozoin content was quantified by taking the absorbance at 400 nm and using a standard curve prepared from β-haematin. The amount of haemozoin formed in relation to control was calculated. All assays were performed in triplicate.

[4] = Haemolysis assay on normal erythrocytes
Method: Briefly, fresh erythrocytes were centrifuged for 5 min at 1600 rpm for at least thrice in PBS and then the remaining pellet was re-suspended in PBS at 2% hematocrit. One hundred microlitres of this suspended pellet was added to 96-well sterile culture plate having test compounds at different desired concentrations. PBS alone (for baseline values) and 0.4% Triton X-100 in PBS (for 100% haemolysis) were employed as controls. After keeping at 37 °C for 3 h, the test samples were centrifuged and the supernatant was used for determination of the haemolytic activity quantified in terms of haemoglobin release as monitored spectrophotometrically by taking absorbance at 415 nm [33]. The experiment was done in triplicate and the mean ± SD was calculated [33, 34]. %Haemolysis=[Absorbanceofsample415nm-Absorbanceofblanksample415nm/Absorbanceofpositivecontrol415nm]∗100

IC50 ([2]; read-out: P. falciparum Chloroquine^s Strain (MRC-2) IC50): 0.17 µg/mL (≈ 0.531 µM) | IC90 ([2]; read-out: P. falciparum Chloroquine^s Strain (MRC-2) IC90): 1.14 µg/mL (≈ 3.56 µM)
Structure (SMILES): CCN(CC)CCCC(C)Nc1ccnc2cc(Cl)ccc12 (stereo not shown) [CHL, chloroquine, reference compound]
viability at 24 h, 12.5 µg/mL [1]: 58 ± 0.06% | inhibition at 6.25 µg/mL ([2]; read-out: % Schizont maturation inhibition ± SD (MRC-2)): 88.39 ± 0.71% | Amount of haemozoin production [3]: 359.52 ± 2.38 ng/mL | Amount of haemozoin production ([3]; listed as chloroquine): 359.52 ± 2.38 ng/mL | hemolysis at 3 h, 12.5 μg/mL [4]: 0.86 ± 0.001%
